In patent US20200297601A1, “COMPOSITION FOR SKIN MOISTURIZATION OR SKIN WHITENING, CONTAINING PENTACYCLIC TRITERPENE CAFFEIC ACID ESTERS” (AMOREPACIFIC CORPORATION, priority 2016, published 2020):

System: filaggrin
Assay: Immunofluorescent staining and imaging of filaggrin in artificial skin
Assay type: cell-based
Settings: artificial skin (AmoreReskin) surface treated for 4 days, FIG. 3
Method: The skin moisturizing effect of Example 1 and Example 4 was evaluated by immunofluorescent staining and imaging of filaggrin which is known as an important skin moisturizing factor.
The surface of artificial skin (AmoreReskin™) was treated with 2 ppm ceramide PC 104, Example 1 and Example 4 for 4 days and then immunofluorescent staining was conducted. The immunofluorescent staining was conducted as follows.
i. Artificial skin is immersed in OCT solution (optimal cutting temperature, Tissue Tek) and stored at −70° C.
ii. The artificial skin is prepared into 10-μm thick sections using a cryotome and fixed on a slide.
iii. Lines are drawn around the artificial skin sections using a PAP pen.
iv. The slide is dried at room temperature for at least 8 hours.
v. The artificial skin sections are washed with PBS and […] in OCT solution.
vi. The artificial skin sections are treated with a blocking solution (1% BSA in PBS) for 30 minutes.
vii. The sections are treated with anti-filaggrin antibody (ab24584, Abcam) for 2 hours.
viii. The sections are treated with Texas Red anti-rabbit antibody (T6391, Life technologies) diluted to 1:200 in a blocking solution for 1 hour.
ix. The sections are stained with DAPI (4′,6-diamidino-2-phenylindole) for 5 minutes.
x. The sections are washed with PBS 3 times.
xi. […]

3β,23,28-Trihydroxy-12-oleanene 23-caffeate [Example 1]
filaggrin protein (immunofluorescence): significantly increased
